The text below walks through data of patent US10183027B2, “Lanthanide toolbox for multi-modal, non-invasive tumor specific theranostic prodrugs” (priority 2016, dated 2019).

Where two headings read alike, the source gives them in different places.

Data set [1] relates to Plasmid DNA. The data set is described as follows: Agarose gel electrophoresis of plasmid DNA with RuEuL / EuL. Type of data set: biochemical. Conditions: 20 μM. On the procedure:
Furthermore, the interaction of photo-activated RuEuL with DNA was examined by agarose gel electrophoresis (FIG. 24). Plasmid DNA (22.5 μg/mL in Tris/EDTA (TE) buffer) was incubated with the compounds (20 μM), irradiated by 488 nm light (dose 50 J m^−2) or not (control) and then subjected to 1% agarose gel electrophoresis. The separated DNA was stained with GelRed Nucleic Acid Stain (BIOTIUM) and imaged using Tanon 1600 Gel Imaging System (Tanon Science & Technology Co., Ltd).

Data set [2] concerns HeLa cells. The data set is described as follows: Dark and photo cytotoxicity of RuEuL against HeLa cells. The format is cell-based, human. The conditions noted are these: for IC50: HeLa. On the procedure:
To determine the potential of RuEuL as a photo-controlled prodrug cell cytotoxicity studies were performed on human cervical cancer (HeLa) cells, and EuL as control (FIGS. 25A and 25B). Cells were incubated 6 hours in the dark before irradiation (488 nm, 1 J); dark controls were run in parallel.

The test system of another data set is HeLa. The experiment in a line: Dark cytotoxicity of Eu(III) complexes on HeLa cells. The format is cell-based.
The next data set deals with A549. The experiment in a line: Dark cytotoxicity of Eu(III) complexes on A549 cells. Type of data set: cell-based.
Data set [3] concerns Plasmid DNA. The experiment in a line: Agarose gel electrophoresis of plasmid DNA after UVA irradiation (PtEuL). Type of data set: biochemical. The conditions noted are these: 20 μM, UVA light dose 50 J m^−2. From the text: The DNA gel images were obtained using GelRed Nucleic Acid Stain (BIOTIUM).
(§1) Direct binding of PtEuL with DNA in dark were studied by circular dichroism (CD). […] The interaction of photo-activated PtEuL with DNA was examined by agarose gel electrophoresis (FIG. 29B). After UVA irradiation with PtEuL, conversion of the supercoiled conformer of the plasmid DNA to its open-circular conformer, which indicates DNA nicking (single strand break) and linear conformer, which indicates double strand break, is clearly seen.

Data set [4] deals with HeLa cells. The data set is described as follows: Two-photon confocal microscopy of HeLa cells with PtEuL / EuL. The format is cell-based. Here is the method: Near infrared (NIR) excitation has increasingly been used in live cell imaging and photodynamic or photoactivated chemo-therapy because NIR photon (λ=650-900 nm) can penetrate deeper into tissues with pinpoint accuracy and little collateral photodamage. The two-photon photophysical properties of some antenna ligands of lanthanide complexes have been studied previously. The two-photon induced cytotoxicity of the EuL and PtEuL complexes towards HeLa cells after incubation at different dose concentrations (PtEuL: 0, 1, 2, 5, 10 μM; EuL: 0, 10, 20, 50, 100 μM) for 24 hours was studied using two-photon (λex=730 nm) confocal microscopy (FIGS. 30A-30C and FIGS. 33A and 33B). […] This is probably due to the lower cellular uptake rate of EuL because we no Eu emission was observed from the HeLa cells even after incubation in 100 μM of EuL, ceteris paribus.

Data set [5] is described as follows: Photo-induced dissociation of the cisplatin unit in tris buffer monitored by emission. The format is physicochemical. On the procedure:
One of the key issues is the photodissociation level of the Pt moiety from the compounds described herein. The triplet states of the chromophores before and after photo-release the drug or upon binding with αvβ3 isoform were measured. Based on the synthetic protocols described herein, La (lanthanum) and Gd (gadolinium) analogs can be synthesized to measure the triplet states of the chromophores as well. The measurements of the triplet states of these chromophores phosphorescence and their phosphorescence lifetime was undertaken at low temperature (77K). The photodissociation kinetics of PtEuL were investigated by monitoring the emission spectrum with different irradiation times of UVA/NIR (light dosage=4 J cm^−2). The plot of responsive and initial emission intensity at 615 nm (^5D0→^7F2) vs time will be fitted in the exponential growth and decay equation to obtain the pseudo-first order rate constant.
The linear light induced dissociation of PtGdL in tris buffer (20 mM Tris base, 50 mM NaCl, pH 7.4) was monitored by determination of the emission intensity of solution of PtGdL in tris buffer with different light dosage of 365 nm UV light. In general, 3 mL of the solution of PtGdL (3 μM in tris buffer) in a 3.5 mL quartz cuvette was irradiated with a 365 nm UV lamp (5 mW) with stirring. The emission spectra of the solution were recorded at different time points (0, 1, 3, 5, 7, 10, 15, 20, 30, 45, 60, 75 and 90 min).
(Ln=Eu or Gd). The solution-state electronic adsorption and emission spectra of all the complexes and the ligand were recorded at 298 K (FIGS. 28A-28D). The EuL complex is the product of PtEuL after photo-dissociation and was used to monitor the photo-dissociation of [Pt—(NH3)2Cl]^+ from PtEuL. […] The photo-dissociation of PtEuL (3 μM in Tris-buffer, pH=7.4, 50 mM NaCl) was monitored by the variation of the Eu emission (λem=615 nm, ^5D0→^7F2) with the irradiation time. […] The pseudo-first order rate constant k was determined to be 0.53 min^−1 under these experimental conditions (FIG. 28D).

The test system of data set [6] is HeLa cells. The data set is described as follows: Confocal microscopy of light-induced cytotoxicity of RuEuL. The format is cell-based, human. Conditions: 50 μM RuEuL or 10 μM PtEuL, 6 hours, 7 mW. From the text: The light-induced cytotoxicity of RuEuL towards HeLa cells was also investigated by confocal microscopy (FIG. 26B) with the PtEuL complex tested under identical conditions for comparison. […] In cell culture studies, red Eu(III) emission from RuEuL was observed after 15-min irradiation. (FIG. 26A) The emission intensity increased with longer irradiation time because more excitation energy induced the dissociation of more Ru(II) moieties from the parent molecules, and the resulting EuL units generated stronger light emission. […] PtEuL is photo-activated upon ultraviolet A irradiation (λ=365 nm). However, UVA irradiation could cause severe adverse effects on human cells.

Data set [7] relates to Plasmid DNA. The data set is described as follows: Circular dichroism of plasmid DNA with PtEuL in dark. Type of data set: binding. Conditions: 50 μM, 37° C., 12 h.
Source text: as §1
(Circular dichroism is the unequal absorption of left and right circularly polarised light.)

Data set [8] is described as follows: Photo-induced dissociation and dark stability of RuEuL in aqueous solution. Type of data set: physicochemical. Here is the method: The photo-induced dissociation of RuEuL was simultaneously studied by emission (FIG. 21) spectroscopy, and by HPLC (FIG. 22) of the RuEuL solution (5 μM in H2O) after continuous irradiation with visible light (λirr.=488 nm, 1 W) during various times (1-8 min). After irradiation, turned-on europium emission is observed. This observation can be explained by the existence of dissociative states on Ru(II), which were proposed by Saddler et al. The photo-dissociation products, EuL and [Ru(OH)(bpy)2(H2O)]^+, have been further qualitatively identified by HPLC (FIG. 22). Before light irradiation, only one HPLC peak corresponding to RuEuL (retention time, R=11.3 min) is observed. After irradiation, this peak disappears, and two peaks of dissociated photoproducts appear.
In order to obtain the exact amount of the photo-released ruthenium(II) moiety for biomedical purpose and to evaluate drug release in real time, quantitative analysis is required. It can be achieved by LC/ESI-MS for simultaneous detection of the photo-products EuL and [Ru(OH)(bpy)2(H2O)]^+. Moreover, the switchable europium(III) emission can be considered as a real-time signaling technique for the released anticancer Ru(II) complexes and can also be exploited quantitatively. […]

Setting [9] is: 6 hours in the dark then irradiation (488 nm, 1 J), read-out: light IC50.
Setting [10] is: mean ± SD of three independent experiments.

Turning to `O.O=C([O-])CN1CCN(CC(=O)[O-])CCN(Cc2cc(C#Cc3ccc(NC(=O)c4ccncc4)cc3)ccn2)CCN(CC(=O)[O-])CC1.[Eu+3]` [EuL], the “interaction with DNA” value with Plasmid DNA [1] is “does not interact with DNA”. In the data set with HeLa cells [2] (control), the “toxicity towards HeLa cells” value is reported as “almost no toxicity”. Moreover, the “toxicity towards HeLa” value with HeLa (identical conditions) is “no toxicity”. Besides, the “toxicity towards A549” value in the data set with A549 (identical conditions) was “no toxicity”. Also, the DNA photocleavage activity result in the data set on Plasmid DNA [3] is “not at all”. Moreover, the “red emission from treated cells” value in the data set on HeLa cells [4] (identical conditions, up to 100 μM) is listed as “no red emission was detected”.
On to `O.O=[N+]([O-])[O-].[Eu+3].[NH3+][Pt-2]([NH3+])([Cl])[n+]1ccc(C(=O)Nc2ccc(C#Cc3ccnc(CN4CCN(CC(=O)[O-])CCN(CC(=O)[O-])CCN(CC(=O)[O-])CC4)c3)cc2)cc1` [PtEuL], for which the “pseudo-first order rate constant k (I/I0 @ 615 nm vs. time)” value in [5] (3 μM in Tris-buffer pH 7.4, 50 mM NaCl, UVA 365 nm) was found to be 0.53 min⁻¹. For the same compound, the “pseudo-first order rate constant k for the dissociation of the cisplatin unit” value in data set [5] (tris buffer pH 7.4, UV 365 nm, 5 mW) came out at 0.053 min⁻¹. The figures for the IC50 with HeLa cells [2] (setting [9]), with HeLa (setting [10]) and with A549 (setting [10]) were 22.9 µM, 22.5 ± 0.5 µM and 49.5 ± 0.1 µM, respectively. In addition, the “cell damage and red emission on 488 nm laser irradiation” value in the data set with HeLa cells [6] is listed as “no red emission or cell death”. Moreover, the “direct binding with DNA in dark (CD)” value in the data set with Plasmid DNA [7] was “can directly bind to DNA and unwind its helix”. Further, in the data set with Plasmid DNA [3], the DNA photocleavage activity entry is “strong DNA photocleavage activity”. Further, the “concentration at which red emission was observed in the cell” value in the data set with HeLa cells [4] (24 hours incubation, 30 min intermittent two-photon excitation 730 nm) was above 2 µM.
As for `O.O=C([O-])CN1CCN(CC(=O)[O-])CCN(Cc2cc(C#Cc3ccc(NC(=O)c4cc[n+]([Ru-4]56([Cl])([n+]7ccccc7-c7cccc[n+]75)[n+]5ccccc5-c5cccc[n+]56)cc4)cc3)ccn2)CCN(CC(=O)[O-])CC1.[Cl-].[Eu+3]` [RuEuL], the “pseudo-first order rate constant k of photo-dissociation” value in data set [8] (5 μM in H2O, visible laser irradiation, 1 W) was determined as 0.43 min⁻¹. Besides, the “stability in the dark” value in data set [8] (dark, 37° C., 24 hours) is given as “stable”. Further, in the data set with Plasmid DNA [1] (488 nm light, dose 50 J m^−2), the “migration of DNA with light excitation” value is “delayed”. For the same compound, the “migration of DNA without irradiation” value in the data set on Plasmid DNA [1] (control lanes) is “left the DNA intact and showed normal migration”. Further, the IC50 in the data set on HeLa cells [2] (setting [9]) was 32.5 µM; in the data set on HeLa cells [2] (dark, read-out: dark IC50), above 200 µM. In addition, the “cell damage and red emission on 488 nm laser irradiation” value in the data set with HeLa cells [6] is reported as “cell lysis was detected after 15-min irradiation”.

As a reminder, the IC50 is the concentration that inhibits the measured activity by half.
